For series [1], the target named is T1, Deubiquitinase and deneddylase Dub1 (Chlamydia trachomatis serovar L2 (strain ATCC VR-902B / DSM 19102 /434/Bu)) (UniProt B0B9A0).
T1 sequence (whole entry): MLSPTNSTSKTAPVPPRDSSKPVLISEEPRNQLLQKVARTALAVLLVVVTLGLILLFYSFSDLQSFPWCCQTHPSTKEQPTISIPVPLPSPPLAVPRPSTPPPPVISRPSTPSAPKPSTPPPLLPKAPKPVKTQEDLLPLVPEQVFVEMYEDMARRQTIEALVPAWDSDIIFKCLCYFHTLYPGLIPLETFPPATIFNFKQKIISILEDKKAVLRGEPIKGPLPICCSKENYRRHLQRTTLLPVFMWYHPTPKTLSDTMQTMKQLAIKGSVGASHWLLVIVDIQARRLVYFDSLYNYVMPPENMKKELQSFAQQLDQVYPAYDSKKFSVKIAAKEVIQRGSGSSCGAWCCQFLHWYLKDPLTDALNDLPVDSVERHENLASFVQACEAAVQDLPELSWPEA
The series is described as follows: Binding affinity to Chlamydia trachomatis DUB1 using Ub-Rh110Gly as substrate assessed as ratio of Kinact/Ki.

Series [2] in a line: Drug metabolism in PBS assessed as pseudo-first-order rate constant of Cysteine at 50 uM incubated for >10 hrs in presence of L-Cysteine by HPLC-UV analysis. The format is ADME. Particulars: buffer.

`COc1ccccc1CNC(=O)c1ccc(CNS(=O)(=O)c2cnc(C#N)nc2)cc1`: the Ratio in series [1] turned out to be 15.6 M⁻¹ s⁻¹.
Turning to `COc1ccccc1CNC(=O)c1ccc(CNC(=O)C2CCN(C#N)CC2)cc1`, the K in series [2] worked out at 0.151 h⁻¹.
As for `COc1ccccc1CNC(=O)c1ccc(CNC(=O)[C@@H]2CCN(C#N)C2)cc1`, the K in series [2] was found to be 0.824 h⁻¹. Besides, the Ratio in series [1] amounted to 0.761 M⁻¹ s⁻¹.
With `COc1ccccc1CNC(=O)c1ccc(CNC(=O)[C@H]2CCN(C#N)C2)cc1`, in series [2], the K is 0.87 h⁻¹. For the same compound, the Ratio in series [1] is 1.1 M⁻¹ s⁻¹.
For `COc1ccccc1CNC(=O)c1ccc(CNC(=O)c2nc(C#N)ncc2F)cc1`, the Ratio in series [1] turned out to be 32.2 M⁻¹ s⁻¹.
With `COc1ccccc1CNC(=O)c1ccc(CNC(=O)c2coc(C#N)n2)cc1`, the Ratio in series [1] came out at 137 M⁻¹ s⁻¹.
With `N#Cc1nccc(C(=O)NCc2ccc(C(=O)NCc3ccccc3)cc2)n1`, the Ratio in series [1] worked out at 10.7 M⁻¹ s⁻¹.

Values taken from ChEMBL document CHEMBL6071191, “Correlating Predicted Reactivities with Experimental Inhibition Data of Covalent ChlaDUB1 Inhibitors” (ACS Med Chem Lett, 2024).
